The subject of data set [1] is MRC5 human lung fibroblasts. Kind of data set: Sulforhodamine B antiproliferative assay, MRC5. In kind it is cell-based. Particulars: 24 h drug exposure + 72 h recovery, SRB; non-cancer fibroblasts. Here is the method:
(§1) In vitro biological studies
(§2) Sulforhodamine B cell viability colorimetric assay.
(§3) by ICP-OES analysis for metal content).
(§4) 72 h recovery time (310 K).
(§5) using slowly-running tap water and air dried.
(§6) Data were processed using Microsoft Excel
IC50 values (concentrations at which […]
After this time, cells were […]
For orientation: Sulforhodamine B stains cellular protein and so reports cell mass.

Data set [2] deals with A2780 ovarian carcinoma cells. Kind of data set: Sulforhodamine B antiproliferative assay, A2780. In kind it is cell-based, human. Particulars: 24 h drug exposure + 72 h recovery in drug-free medium, SRB; read-out: Antiproliferative activity (IC50) A2780 Ovarian.
The test system of data set [3] is HCT116p53-/- P53-knockout colorectal carcinoma cells. As to the kind of experiment: Sulforhodamine B antiproliferative assay, HCT116p53-/-. In kind it is cell-based, human. Particulars: 24 h drug exposure + 72 h recovery, SRB, read-out: Antiproliferative activity (IC50) HCT116p53-/- Colon.
For data set [4], the system named is A2780 cancer cells. Particulars: A2780, 20 μM verapamil, normalised Os. Here is the method:
as §1
Cell culture. All cell lines were obtained from the European Collection of Cell Cultures (ECACC). […]
supplemented with 10% foetal calf serum, 1% 2 mM glutamine and 1% penicillin/streptomycin.
HCT116, HCT1116Ox, HCT116p21-/- and HCT116p53-/-, all of colon origin, were grown in McCoy’s Modified 5A medium supplemented with 10% foetal calf serum, 1% 2 mM glutamine and 1% penicillin/streptomycin. HOF normal ovarian fibroblasts were grown in fibroblast growth medium supplemented with 2% foetal calf serum, 1% 2 mM penicillin/streptomycin and 1% fibroblast growth factor. Cells were grown as adherent monolayers in 75 cm2 culture flasks at 310 K in a 5% CO2 humidified atmosphere and passaged at regular intervals using trypsin-EDTA.
After this time, the cells were washed with PBS and supplied
Sulforhodamine B cell viability colorimetric assay. Briefly, 5000 cells were seeded in a 96-well plate […]
mM) were prepared in medium with 5% v/v DMSO (concentration was determined after drug exposure by ICP-OES analysis for metal content). […] Cell viability was determined using the Sulforhodamine B assay.1 Cells […]
50% cell death occurred) are reported as averages with calculated standard deviations. Experiments were performed in triplicate as part as two independent experiments, and statistics calculated using two-tailed t-test assuming unequal variances (Welch’s t-test). […]

Data set [5] has as its system A2780Cis cisplatin-resistant ovarian carcinoma cells. Kind of data set: Sulforhodamine B antiproliferative assay, A2780Cis. In kind it is cell-based, human. To be noted: 24 h drug exposure + 72 h recovery, SRB.
Data set [6] relates to Singapore wild-type zebrafish embryos. In kind it is in vivo, Danio rerio. Particulars: for LC50: zebrafish embryos, 96 h exposure, read-out: LC50 (Danio rerio) SG-WT. Here is the method:
(§7) In vivo biological studies […]
(§8) wild-type zebrafish (SGWT) embryos (< 5 dpf). All animals were maintained in accordance with ASPA […]
(§9) maintained. Light cycle: 14 hours day, 10 hours night.
1 L breeding tank. Pairs were set up the previous evening. Males and females were separated by a divider. The divider was removed around 9am (dawn). Embryos were collected and placed into petri dishes with fresh egg water. […]

For data set [7], the system named is HOF human ovarian fibroblasts. Kind of data set: ROS/superoxide detection by flow cytometry, HOF. Particulars: 24 h, 1.0 × IC50 (pyocyanin positive control 0.1 mM); for % Population Q2 FL1-H+ / FL2-H+: ROS and superoxide; for % Population Q1 FL1-H- / FL2-H+: superoxide only; for % Population Q3 FL1-H+ / FL2-H-: total ROS only. For orientation: A flow cytometer gives signals particle by particle.
Description: (§10) Reactive oxygen species (ROS) determination using flow cytometry. The generation of ROS and
(§11) superoxide in A2780 ovarian cancer cells was evaluated using the ROS/Superoxide detection kit (Enzo
(§12) Life Sciences) following the manufacturer’s protocol.
(§13) cells per well, and incubated for 24 h (310 K). After this time, cells were exposed to equipotent
The pellets were re-suspended in 500
(§14) μL PBS and stained with green fluorescent reagent for total ROS reading in the FL1-green channel (2
(§15) μL) and orange fluorescent reagent for superoxide reading in the FL2-red channel (2 μL). Positive
(§16) control samples were treated with pyocyanin (5 μL, 30 min). Single stained positive control samples
(§17) were used for compensation purposes. Data were obtained using a Becton Dickson FACScan Flow
(§18) Cytometer and processed using FlowJo V10 for Windows.

The test system of data set [8] is HCT116 colorectal carcinoma cells. Kind of data set: Sulforhodamine B antiproliferative assay, HCT116. Particulars: 24 h drug exposure + 72 h recovery, SRB; read-out: Antiproliferative activity (IC50) HCT116 Colon. In kind it is cell-based, human.
Data set [9] relates to A2780 cancer cells. As to the kind of experiment: ROS/superoxide detection by flow cytometry, A2780. To be noted: A2780, 24 h, 1.0 × IC50 (pyocyanin positive control 0.1 mM); for % Population Q1 FL1-H- / FL2-H+: superoxide only; for % Population Q3 FL1-H+ / FL2-H-: total ROS only.
Description: as §10, §11, §12, §13
The pellets were re-suspended in 500
as §14, §15, §16, §17, §18
The test system of data set [10] is AB wild-type zebrafish embryos. In kind it is in vivo. To be noted: 96 h exposure, read-out: LC50 (Danio rerio) AB-WT.
For data set [11], the system named is Tubingen wild-type zebrafish embryos. As to the kind of experiment: Zebrafish embryo toxicity (FET) test, TU-WT. In kind it is in vivo. To be noted: 96 h exposure, read-out: LC50 (Danio rerio) TU-WT.
The test system of data set [12] is HOF human ovarian fibroblasts. Kind of data set: Sulforhodamine B antiproliferative assay, HOF. In kind it is cell-based. Particulars: 24 h drug exposure + 72 h recovery, SRB; non-cancer fibroblasts. Here is the method:
as §1, §2, §3, §4, §5, §6

Data set [13] deals with HCT116Ox oxaliplatin-resistant colorectal carcinoma cells. As to the kind of experiment: Sulforhodamine B antiproliferative assay, HCT116Ox. In kind it is cell-based, human. Particulars: 24 h drug exposure + 72 h recovery, SRB, read-out: Antiproliferative activity (IC50) HCT116Ox Colon.
Data set [14] deals with Singapore wild-type zebrafish. To be noted: 1 or 2× LC50, 96 h, green ROS probe, confocal. Here is the method: as §7, §8, §9
1 L breeding tank. Pairs were set up the previous evening. Males and females were separated by a divider. The divider was removed around 9am (dawn). Embryos were collected and placed into petri dishes with fresh egg water.
Confocal microscopy (zebrafish). […]
or positive control samples.

Data set [15] relates to A549 lung carcinoma cells. As to the kind of experiment: Sulforhodamine B antiproliferative assay, A549. In kind it is cell-based, human. Particulars: 24 h drug exposure + 72 h recovery, SRB.
Data set [16] concerns HCT116p21-/- P21-knockout colorectal carcinoma cells. Kind of data set: Sulforhodamine B antiproliferative assay, HCT116p21-/-. In kind it is cell-based, human. Particulars: 24 h drug exposure + 72 h recovery, SRB, read-out: Antiproliferative activity (IC50) HCT116p21-/- Colon.
For data set [17] the following is noted: CV vs Ag/AgCl, 100 mV/s, 10^–3 M, CH3CN; electrochemically reversible.
The test system of data set [18] is HCT116 human colorectal cancer cells xenografts. To be noted: cited from earlier work.

Each structure is given as a SMILES string.

As for `Cc1ccc(C(C)C)cc1.Cc1ccc(S(=O)(=O)[N-]C(c2ccccc2)C([NH-])c2ccccc2)cc1.[Os+2]` (centres unmarked) [Complex 1, [Os(p-cymene)(Ts-DPEN)]], the IC50 was found to be 21.4 ± 0.7 µM in [1]; 15500 ± 500 nM in data set [2]; 62000 ± 3000 nM in data set [3]; 21600 ± 200 nM in data set [5]; 37000 ± 1000 nM in data set [8]; 29900 ± 500 nM in data set [12]. The IC50 in data set [13] was found to be 51000 ± 2000 nM; in [15], 21100 ± 300 nM; in [16], 106000 ± 2000 nM. For the same compound, the “% accumulation (recovery time) 48 h” value in the data set with A2780 cancer cells [4] worked out at 30 ± 2%. The “% accumulation (recovery time) 72 h” value in the data set on A2780 cancer cells [4] is listed as 17.8 ± 0.3%. Moreover, the LC50 in data set [6] is 2.4 ± 0.4 µM; in [10] it was 4.3 ± 0.7 µM; in data set [11] it was 2.6 ± 0.3 µM. The results for the “% Population Q4 FL1-H- / FL2-H-” value (in [7]; in the data set on A2780 cancer cells [9]) were 7.3 ± 0.5% and 2.4 ± 0.9%, respectively. In addition, the “% Population Q2 FL1-H+ / FL2-H+” value in data set [7] was 38 ± 1%. In addition, the “% Population Q1 FL1-H- / FL2-H+” value in [7] came to 9.1 ± 0.8%; in the data set on A2780 cancer cells [9] it was 1.2 ± 0.2%. In addition, the results for the “% Population Q3 FL1-H+ / FL2-H-” value (in data set [7]; in the data set on A2780 cancer cells [9]) were 45.4 ± 0.7% and 0.3 ± 0.1%, respectively. Also, in data set [14], the “ROS generated in vivo in zebrafish” value is recorded as “elevated levels of ROS”.
In the case of `CN(C)c1ccc(N=Nc2ccccn2)cc1.F[P-](F)(F)(F)(F)F.[I][Os+].c1ccc(-c2ccccc2)cc1` [Complex 12, [Os(Azpy-NMe2)(biphenyl)I]PF6], the IC50 in data set [1] is 0.42 ± 0.03 µM; in [2] it was 140 ± 10 nM; in data set [3], 390 ± 20 nM; in data set [5], 110 ± 10 nM; in data set [8], 820 ± 90 nM; in data set [12], 350 ± 20 nM. Further, the IC50 was found to be 330 ± 50 nM in data set [13], 270 ± 30 nM in data set [15] and 330 ± 20 nM in data set [16]. Moreover, the LC50 turned out to be 6.6 ± 0.4 µM in data set [6], 7.7 ± 0.1 µM in data set [10] and 6.5 ± 0.8 µM in data set [11]. Also, in data set [17], the “First reduction step potential” value was “ca. −0.4 V”.
For `CN(C)c1ccc(N=Nc2ccccn2)cc1.Cc1ccc(C(C)C)cc1.F[P-](F)(F)(F)(F)F.[I][Os+]` [Complex 10, [Os(Azpy-NMe2)(p-cymene)I]PF6], the IC50 in data set [1] was 4.5 ± 0.3 µM; in data set [2], 150 ± 10 nM; in data set [3], 1100 ± 70 nM; in data set [5], 150 ± 10 nM; in data set [8] it was 260 ± 30 nM; in data set [12] it was 2320 ± 10 nM. Also, the IC50 is 960 ± 50 nM in data set [13], 1100 ± 200 nM in [15] and 1640 ± 80 nM in data set [16]. The “Fold less toxic toward zebrafish embryos compared to cisplatin” value in [6] (LC50 ratio vs cisplatin) is 40 ×. The 50% lethal concentration (LC50) in data set [6] stood at 24.3 ± 0.4 µM; in data set [10] it was 16.8 ± 0.8 µM; in [11], 17 ± 1 µM. Besides, the “% Population Q4 FL1-H- / FL2-H-” value in data set [7] is listed as 3.9 ± 0.3%; in the data set on A2780 cancer cells [9], 0.41 ± 0.02%. The “% Population Q2 FL1-H+ / FL2-H+” value in data set [7] is on record as 61 ± 1%. The “% Population Q1 FL1-H- / FL2-H+” value in [7] was 11.3 ± 0.5%; with A2780 cancer cells [9] it was 1.65 ± 0.09%. The “% Population Q3 FL1-H+ / FL2-H-” value in data set [7] was 24.1 ± 0.9%; in the data set with A2780 cancer cells [9], 2.47 ± 0.08%. Also, the “Effect on growth of xenografts” value in data set [18] (HCT116 xenografts in mice) was “delay the growth of xenografts”. Besides, the “Toxic side effects in xenograft-bearing mice” value in data set [18] (xenograft-bearing mice) was “few toxic side effects”. Further, the “ROS generated in vivo in zebrafish” value in data set [14] is “elevated levels of ROS”. Besides, the “First reduction step potential” value in [17] is “ca. −0.4 V”.

The LC50 is the concentration lethal to half of the exposed cells or organisms.

Source of the values: PMC6204601, “In Vivo Selectivity and Localization of Reactive Oxygen Species (ROS) Induction by Osmium Anticancer Complexes That Circumvent Platinum Resistance” (Journal of Medicinal Chemistry, 2018).
